Test results published in patent publication US20250375544A1, “DUAL MODE RADIOTRACER AND -THERAPEUTICS” (TECHNISCHE UNIVERSITÄT MÜNCHEN, priority 2021, published 2025).

What was measured:
[1] = tested on: LNCaP tumor xenograft-bearing CB17-SCID mice; assay: Biodistribution in LNCaP tumor xenograft-bearing CB17-SCID mice; settings: 24 h p.i.
PSMA = PSMA (Homo sapiens, UniProt Q04609); assay: Affinity determinations (IC50), competitive binding assay with ([^125I]I-BA)KuE on LNCaP cells; settings: ([^125I]I-BA)KuE 0.2 nM, HBSS (1% BSA), 4° C., 1 h, cold ^natGa/^natLu complex
Sequence of PSMA (Q04609 whole entry): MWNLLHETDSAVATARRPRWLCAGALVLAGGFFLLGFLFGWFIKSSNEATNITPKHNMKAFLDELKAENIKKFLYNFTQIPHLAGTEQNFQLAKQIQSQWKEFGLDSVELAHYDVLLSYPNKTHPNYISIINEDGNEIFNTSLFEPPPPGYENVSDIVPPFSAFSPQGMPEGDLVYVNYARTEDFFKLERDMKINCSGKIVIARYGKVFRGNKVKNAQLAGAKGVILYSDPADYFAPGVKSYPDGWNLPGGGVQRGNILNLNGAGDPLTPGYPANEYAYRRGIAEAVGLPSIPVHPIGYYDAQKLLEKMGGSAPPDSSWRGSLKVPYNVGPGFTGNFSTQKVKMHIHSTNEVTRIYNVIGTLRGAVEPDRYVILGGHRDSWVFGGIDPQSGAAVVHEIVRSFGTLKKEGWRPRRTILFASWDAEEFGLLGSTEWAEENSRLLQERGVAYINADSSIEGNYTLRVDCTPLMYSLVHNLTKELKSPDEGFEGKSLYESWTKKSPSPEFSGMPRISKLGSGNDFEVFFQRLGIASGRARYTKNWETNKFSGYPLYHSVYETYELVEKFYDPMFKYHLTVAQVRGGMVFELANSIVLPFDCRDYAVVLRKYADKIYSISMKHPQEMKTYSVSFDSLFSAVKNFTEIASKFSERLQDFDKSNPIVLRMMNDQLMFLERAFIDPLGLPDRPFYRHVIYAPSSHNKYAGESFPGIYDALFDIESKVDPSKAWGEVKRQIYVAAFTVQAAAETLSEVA

Structure (SMILES) | Biodistribution Adrenals [1] | Biodistribution Blood [1] | Biodistribution Bone [1] | Biodistribution Heart [1] | Biodistribution Intestine [1] | Biodistribution Kidneys [1] | Biodistribution Liver [1] | Biodistribution Lung [1] | Biodistribution Muscle [1] | Biodistribution Pancreas [1] | Biodistribution Parotid gland [1] | Biodistribution Spleen [1] | Biodistribution Stomach [1] | Biodistribution Submandibular gland [1] | Biodistribution Tumor [1] | IC50 (PSMA)
CSCC[C@H](NC(=O)CC[C@H](NC(=O)N[C@@H](CCC(=O)N[C@H](CCCNC(=O)CCC(=O)NCCCC[C@@H](NC(=O)[C@@H](CNC(=O)c1ccc([Si](F)(C(C)(C)C)C(C)(C)C)cc1)NC(=O)CN1CCN(CC(=O)[O-])CCN(CC(=O)[O-])CCN(CC(=O)[O-])CC1)C(=O)O)C(=O)O)C(=O)O)C(=O)O)C(=O)O.[177Lu+3] [[^177Lu]Lu-5, [^177Lu]Lu-Proinhibitor I] | 0.00 ± 0.00 % ID/g | 0.00 ± 0.00 % ID/g | 0.00 ± 0.00 % ID/g | 0.01 ± 0.00 % ID/g | 0.55 ± 0.04 % ID/g | 0.48 ± 0.02 % ID/g | 0.05 ± 0.00 % ID/g | 0.33 ± 0.30 % ID/g | 0.00 ± 0.00 % ID/g | 0.01 ± 0.00 % ID/g | 0.02 ± 0.00 % ID/g | 0.05 ± 0.01 % ID/g | 0.14 ± 0.07 % ID/g | 0.02 ± 0.01 % ID/g | 0.09±0.02 % ID/g | 
CCCCCC[C@H](NC(=O)[C@H](CCC(=O)O)NC(=O)N[C@@H](CCC(=O)N[C@H](CCCNC(=O)CCC(=O)NCCCC[C@@H](NC(=O)[C@@H](CNC(=O)c1ccc([Si](F)(C(C)(C)C)C(C)(C)C)cc1)NC(=O)CN1CCN(CC(=O)[O-])CCN(CC(=O)[O-])CCN(CC(=O)[O-])CC1)C(=O)O)C(=O)O)C(=O)O)C(=O)O.[177Lu+3] [[^177Lu]Lu-7, [^177Lu]Lu-Proinhibitor III] | 0.03 ± 0.01 % ID/g | 0.01 ± 0.00 % ID/g | 0.04 ± 0.01 % ID/g | 0.03 ± 0.01 % ID/g | 0.10 ± 0.05 % ID/g | 2.04 ± 0.75 % ID/g | 0.17 ± 0.05 % ID/g | 0.04 ± 0.01 % ID/g | 0.01 ± 0.00 % ID/g | 0.02 ± 0.00 % ID/g | 0.06 ± 0.01 % ID/g | 0.08 ± 0.02 % ID/g | 0.04 ± 0.01 % ID/g | 0.05 ± 0.02 % ID/g | 0.14 ± 0.05 % ID/g | 
CCCCCC[C@H](NC(=O)CC[C@H](NC(=O)N[C@@H](CCC(=O)N[C@H](CCCNC(=O)CCC(=O)NCCCC[C@@H](NC(=O)[C@@H](CNC(=O)c1ccc([Si](F)(C(C)(C)C)C(C)(C)C)cc1)NC(=O)CN1CCN(CC(=O)[O-])CCN(CC(=O)[O-])CCN(CC(=O)[O-])CC1)C(=O)O)C(=O)O)C(=O)O)C(=O)O)C(=O)O.[177Lu+3] [[^177Lu]Lu-6, [^177Lu]Lu-Proinhibitor II] | 0.04 ± 0.00 % ID/g | 0.00 ± 0.00 % ID/g | 0.02 ± 0.01 % ID/g | 0.03 ± 0.01 % ID/g | 0.18 ± 0.06 % ID/g | 2.36 ± 0.39 % ID/g | 0.14 ± 0.02 % ID/g | 0.10 ± 0.08 % ID/g | 0.02 ± 0.00 % ID/g | 0.03 ± 0.01 % ID/g | 0.09 ± 0.03 % ID/g | 0.11 ± 0.03 % ID/g | 0.05 ± 0.01 % ID/g | 0.07 ± 0.01 % ID/g | 0.33±0.11 % ID/g | 
CC(C)(C)[Si](F)(c1ccc(C(=O)NCC(NC(=O)CN2CCN(CC(=O)[O-])CCN(CC(=O)[O-])CCN(CC(=O)[O-])CC2)C(=O)NC(CCCCNC(=O)CCC(=O)NCCCC(NC(=O)CCC(NC(=O)NC(CCC(=O)O)C(=O)O)C(=O)O)C(=O)O)C(=O)O)cc1)C(C)(C)C.[Lu+3] (stereo not shown) [^natLu-1, ^natLu-PSMA-10, reference compound] |  |  |  |  |  |  |  |  |  |  |  |  |  |  |  | 7.2 ± 3.7 nM
